According to PubChem BioAssay AID485340 (Southern Research Specialized Biocontainment Screening …, 2010):
Calls of active or inactive are those of the source. No rule for the calls is given here.

Test system: M. tuberculosis growth, meropenem IC50 shift with compound
Assay: confirmation, meropenem IC50 shift (AID 485340);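 also: growth read after one week of culture plus overnight Alamar Blue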
[1] = compound alone IC50 vs Mtb, compound dose (near its own IC50) 1.18 µM
[2] = compound dose (near its own IC50) 1.18 µM
[3] = compound alone IC50 vs Mtb, compound dose (near its own IC50) 2.35 µM
[4] = compound dose (near its own IC50) 2.35 µM
[5] = compound alone IC50 vs Mtb, compound dose (near its own IC50) 0.59 µM
[6] = compound dose (near its own IC50) 0.59 µM
[7] = compound alone IC50 vs Mtb, compound dose (near its own IC50) 9.38 µM
[8] = compound dose (near its own IC50) 9.38 µM
[9] = compound alone IC50 vs Mtb, compound dose (near its own IC50) 4.69 µM
[10] = compound dose (near its own IC50) 4.69 µM
[11] = compound alone IC50 vs Mtb, compound dose (near its own IC50) 0.15 µM
[12] = compound dose (near its own IC50) 0.15 µM

Q: Which results are given for `COc1cccc(C(=O)C2CCCN(Cc3ccccn3)C2)c1` (stereo unspecified)?
A: IC50 [1]: 1.46 µM; IC50 [2]: 7.15 µM (inactive)

Q: `Cc1ccc(OCC(=O)Nc2ccc3c4c(cccc24)CC3)c(C)c1` was tested. Which IC50 [3] did it give?
A: 1.71 µM

Q: And the IC50 [4]?
A: 7.05 µM (inactive)

Q: How did the IC50 [3] turn out when `Cc1ccc(Cn2c(NC(=O)c3ccco3)nc3ccccc32)cc1` was run?
A: 2.62 µM

Q: And the IC50 [4]?
A: 4.24 µM (inactive)

Q: Which IC50 [1] does the source give for `O=C1O/C(=C/c2ccccc2)N=C1c1ccccc1` here?
A: 1.34 µM

Q: And the IC50 [2]?
A: 4.56 µM (inactive)

Q: What does the source list for `C/C(=N\NC(=S)Nc1ccccc1C)c1ccc(O)cc1`?
A: IC50 [5]: 0.552 µM; IC50 [6]: 7.22 µM (inactive)

Q: How did the IC50 [1] turn out when `CCOC(=O)c1cnc2cc(-c3ccc(C(C)(C)C)cc3)nn2c1N` was run?
A: 0.899 µM

Q: And the IC50 [2]?
A: 7.5 µM (inactive)

Q: With `CSc1ncnc2c1ccn2CC(=O)Nc1ccc(C)c(C)c1` as the compound, how does the IC50 [7] read?
A: 8.44 µM

Q: What about the IC50 [8] of the same compound?
A: 7.31 µM (inactive)

Q: With `O=C(CC12CC3CC(CC(C3)C1)C2)NCc1ccc(F)cc1` as the compound, how does the IC50 [7] read?
A: 7.43 µM

Q: What about the IC50 [8] of the same compound?
A: 7.53 µM (inactive)

Q: Which IC50 [7] does the source give for `O=C(Cc1ccccc1Cl)Nc1nc2ccccc2[nH]1` here?
A: 9.31 µM

Q: What about the IC50 [8] of the same compound?
A: < 0.52 µM

Q: `Cc1cc(C)c(OCC(=O)Nc2nc3ccccc3[nH]2)c(C)c1` was tested. Which IC50 [1] did it give?
A: 1.22 µM

Q: What about the IC50 [2] of the same compound?
A: 7.24 µM (inactive)

Q: Which IC50 [9] does the source give for `CCNC(=S)N/N=C1\C(=O)c2cccc3cccc1c23` here?
A: 5.46 µM

Q: What about the IC50 [10] of the same compound?
A: 4.97 µM (inactive)

Q: Which IC50 [11] does the source give for `CCCN1C(=O)S/C(=C/c2ccc(N3CCOCC3)o2)C1=O` here?
A: 0.2 µM

Q: And the IC50 [12]?
A: 5.45 µM (inactive)

Q: Which IC50 [1] does the source give for `O=C(Nc1cccc(Cl)c1N1CCOCC1)c1ccc([N+](=O)[O-])o1` here?
A: 0.909 µM

Q: And the IC50 [2]?
A: 7.42 µM (inactive)

Q: Which IC50 [1] does the source give for `C=C1C(=O)O[C@@H]2[C@H]1[C@@H](OC(=O)/C(C)=C/C)C/C(C)=C\C(=O)/C=C(\C)[C@@H]2O` here?
A: 1.24 µM

Q: What about the IC50 [2] of the same compound?
A: 6.46 µM (inactive)

Q: With `c1ccc(OCc2nnc(-c3ccccc3)o2)cc1` as the compound, how does the IC50 [1] read?
A: 1.4 µM

Q: What about the IC50 [2] of the same compound?
A: 7.26 µM (inactive)

Q: With `CCC(C(=O)NC1C(=O)N2C(C(=O)O)=C(CSc3nnc(C)s3)CSC12)c1ccccc1` (stereo unspecified) as the compound, how does the IC50 [5] read?
A: 0.587 µM

Q: And the IC50 [6]?
A: 1.99 µM (inactive)

Q: For `COC(=O)c1c(C)n(-c2ccccc2)c2ccc(O)cc12`, which IC50 [1] is on record?
A: 1.53 µM

Q: And the IC50 [2]?
A: 6.07 µM (inactive)

Q: With `COc1cc(/C(C)=N\NC(N)=S)cc(OC)c1OC` as the compound, how does the IC50 [7] read?
A: 10.2 µM

Q: And the IC50 [8]?
A: 2.82 µM (inactive)

Q: With `C/C(=N\NC(=O)c1cc(Br)ccc1O)c1ccccn1` as the compound, how does the IC50 [9] read?
A: 3.88 µM

Q: What about the IC50 [10] of the same compound?
A: 1.73 µM (inactive)

Q: For `COC(=O)c1sc(-c2ccc(C(C)(C)C)cc2)cc1NC(=O)CCC(=O)O`, which IC50 [1] is on record?
A: 1.37 µM

Q: And the IC50 [2]?
A: 7.19 µM (inactive)

Q: `CCOC(=O)COc1nc(-c2ccc(Cl)cc2)cc(-c2ccco2)c1C#N` was tested. Which IC50 [9] did it give?
A: 3.82 µM

Q: What about the IC50 [10] of the same compound?
A: 7.14 µM (inactive)

Q: Which IC50 [7] does the source give for `O=C(CCN1c2ccccc2Sc2ccccc21)Oc1ccccc1` here?
A: 8.48 µM

Q: And the IC50 [8]?
A: 2.05 µM (inactive)

Q: What does the source list for `Cc1ccc(-c2nc3[nH]c(=O)cc(NC(=O)C(C)C)n3n2)cc1`?
A: IC50 [7]: 7.36 µM; IC50 [8]: 3.83 µM (inactive)

Q: With `Cc1cc(NC(=O)/C=C/c2ccccc2Cl)n(-c2nc3ccccc3[nH]2)n1` as the compound, how does the IC50 [3] read?
A: 1.94 µM

Q: And the IC50 [4]?
A: 5.88 µM (inactive)

Q: Which results are given for `CC(C)Cn1c2c(c(O)c(C(=O)Nc3nccs3)c1=O)CCCC2`?
A: IC50 [3]: 3.22 µM; IC50 [4]: 4.05 µM (inactive)

Q: Which results are given for `CCOc1ccc2c(c1)c(C(C)=O)c(C)n2-c1ccccc1`?
A: IC50 [11]: 0.2 µM; IC50 [12]: 3.86 µM (inactive)

Q: Which results are given for `COc1c(F)c(F)c(C(=O)Nc2c(C)cc(Br)cc2C)c(F)c1F`?
A: IC50 [9]: 4.58 µM; IC50 [10]: 5.02 µM (inactive)

Q: For `C[C@H](NC(=O)c1[nH]cnc1C(=O)Nc1ccc(Cl)cc1)C(=O)OC(C)(C)C`, which IC50 [7] is on record?
A: 10.4 µM

Q: What about the IC50 [8] of the same compound?
A: 4.93 µM (inactive)

Q: How did the IC50 [3] turn out when `NC(=S)N/N=C/c1ccc(/C=N/NC(N)=S)cc1` was run?
A: 2.5 µM

Q: And the IC50 [4]?
A: 4.04 µM (inactive)

Q: For `COc1cc(C(=O)Oc2ccccc2/C=N/NC(=O)c2ccc(C)c(Cl)c2)cc(OC)c1OC`, which IC50 [3] is on record?
A: 1.96 µM

Q: And the IC50 [4]?
A: 4.26 µM (inactive)

Q: With `Cc1nnc(SCC2=C(C(=O)O)N3C(=O)C(NC(=O)COc4ccc(F)cc4)C3SC2)s1` (stereo unspecified) as the compound, how does the IC50 [3] read?
A: 1.74 µM

Q: What about the IC50 [4] of the same compound?
A: 1.04 µM (inactive)

Q: Which IC50 [9] does the source give for `COc1ccc(-c2cc(C(N)=O)nc(N3CCCCCC3)n2)cc1` here?
A: 3.95 µM

Q: And the IC50 [10]?
A: 4.05 µM (inactive)

Q: What does the source list for `CCc1ccc(NC(=O)c2c(Cl)nc(C)c(Cl)c2C)cc1`?
A: IC50 [7]: 7.1 µM; IC50 [8]: 7.77 µM (inactive)

Q: How did the IC50 [9] turn out when `S=C(Nc1ccccc1)Nc1ccc(Cl)cn1` was run?
A: 4.68 µM

Q: What about the IC50 [10] of the same compound?
A: 4.86 µM (inactive)

Q: With `COc1cccc(-c2ccc(-c3noc(-c4ccccc4F)n3)c(OC)n2)c1` as the compound, how does the IC50 [7] read?
A: 9.65 µM

Q: What about the IC50 [8] of the same compound?
A: 4.08 µM (inactive)

Q: What does the source list for `c1ccc(Nc2ncnc3c2oc2ccccc23)cc1`?
A: IC50 [3]: 2 µM; IC50 [4]: 6.76 µM (inactive)

Q: What does the source list for `Cc1ccccc1OCC(=O)Nc1ccccc1N1CCCCC1`?
A: IC50 [9]: 5.94 µM; IC50 [10]: 6.96 µM (inactive)

Q: Which IC50 [3] does the source give for `COc1cccc(/C=N/NC(=O)NC23CC4CC(CC(C4)C2)C3)c1O` here?
A: 2.93 µM

Q: And the IC50 [4]?
A: 5.23 µM (inactive)
